As a reminder, the IC50 is the midpoint of a concentration-inhibition curve. Higher therefore signals a need for much substance.

These results are taken from US10918645B2 (LIFEARC, priority 2016, dated 2021).

Assay [1] concerns transgenic Drosophila expressing LRRK2-G2019S in dopamine (DA) neurons. The experiment in a line: Drosophila model survival rate. It is filed as in vivo. The note with it: significance compared to DMSO negative control. From the text: (§1) Drosophila model was used to evaluate Examples in vivo. The GAL4/UAS system developed by Andrea Brand and Norbert Perrimon in 1993 [45] was used to generate transgenic Drosophila expressing LRRK2-G2019S in dopamine (DA) neurons. The system has two parts: the GAL4 gene, encoding the yeast transcription activator protein GAL4, and the UAS (Upstream Activation Sequence), an enhancer to which GAL4 specifically binds to activate gene transcription. This system takes advantage of the yeast GAL4 transcription factor, which binds specifically to the UAS.
To express LRRK2-G2019S in DA neurons, the UAS-Wild Type-LRRK2 and UAS-G2019S-LRRK2 transgenes were combined with the dopa decarboxylase (ddc)-GAL4 driver. The 10 μM GW5074 was used for the positive control. […]
Twenty newly enclosed female Drosophila were collected and placed in a food vial. The Drosophila were moved to fresh food vials every other day at which time deaths were scored.
Based on Drosophila′ survival curve, the 50% survival time parameter indicates the time at which half of the Drosophila remained alive and was used to compare the survival ratio between the different groups. The mean 50% survival times and the standard errors were calculated based on 4 separate experiments for each group. The data were analysed by GraphPad PRISM® 6.0 software.

For assay [2] the test system is unchanged. The experiment in a line: Drosophila model climbing assay (negative geotaxis). It is filed as in vivo. The note with it: significance compared to DMSO negative control.
Text: as §1
To express LRRK2-G2019S in DA neurons, the UAS-Wild Type-LRRK2 and UAS-G2019S-LRRK2 transgenes were combined with the dopa decarboxylase (ddc)-GAL4 driver. The 10 μM GW5074 was used for the positive control. The negative control group was DMSO control (all compounds were dissolved in DMSO with 1:1000 dillution). The Drosophila were maintained at 25° C. on a 12 hour light-12 hour dark cycle. GW5074 was used as positive control.
The negative geotaxis assay was used to analyse the locomotors ability of the Drosophila. Twenty Drosophila from each vial and 4 vials for each group were performed the climbing assay weekly.
The tested Drosophila were transferred into a vertical plastic tube (15 cm tall, 1.5 cm in diameter). After 30 min of rest at room temperature, the Drosophila were gently tapped to the bottom of the tube, the numbers of Drosophila that could climb to or above the test line within 10 seconds were counted and the percent were calculated.
The climbing abilities were analysed based on three separate experiments for each vial and the data were analysed by GraphPad PRISM® 6.0 software.

Assay [3] addresses LRRK2 (phospho S935) in Drosophila brain lysates (Homo sapiens (Human), UniProt Q5S007, G2019S). The experiment in a line: Drosophila model kinase assays at week 6. The class given is in vivo. The note with it: ratio of phosphate LRRK2 protein to Flag protein, significance compared to DMSO negative control.
Method: The 10 μM GW5074 was used for the positive control. The negative control group was DMSO control (all compounds were dissolved in DMSO with 1:1000 dillution). The Drosophila were maintained at 25° C. on a 12 hour light-12 hour dark cycle. GW5074 was used as positive control [47].
The adult Drosophila heads were homogenized on ice, and the brain lysates were performed kinase reaction in kinase reaction buffer with ATP and DTT.
Then the lysates were electrophoresed through 12% SDS-PAGE gels and transferred to PVDF membranes (Millipore). The membranes were blocked in TBST with 5% skimmed milk for 1 hour at room temperature and then incubated in anti-LRRK2 pSer935 antibody (Abcam, ab133450) and anti-Flag antibody overnight at 4° C.
The proteins were detected with HRP-conjugated secondary antibodies and ECL detection reagents. The optical density of immunoblotting was analysed by Image J software and the ratio of phosphate LRRK2 protein compare to Flag protein were calculated and the data were analysed by GraphPad PRISM® 6.0 software.
The target of assay [4] is LRRK2 G2019S (Homo sapiens (Human), UniProt Q5S007, G2019S). The experiment in a line: Adapta Kinase Assay (LRRK2_IC50 assay). It is filed as biochemical. The note with it: inhibition of LRRK2 G2019S. As to the method: In Adapta™ Kinase Assay (LRRK2_IC50 assay): the Kinase Reaction Buffer contained 5× Kinase Buffer S (Life Technologies, PV5213) and 2 mM DTT (Life Technologies, P2325).
LRRK2 G2019S, sequence (Q5S007 970-2527 G2019S): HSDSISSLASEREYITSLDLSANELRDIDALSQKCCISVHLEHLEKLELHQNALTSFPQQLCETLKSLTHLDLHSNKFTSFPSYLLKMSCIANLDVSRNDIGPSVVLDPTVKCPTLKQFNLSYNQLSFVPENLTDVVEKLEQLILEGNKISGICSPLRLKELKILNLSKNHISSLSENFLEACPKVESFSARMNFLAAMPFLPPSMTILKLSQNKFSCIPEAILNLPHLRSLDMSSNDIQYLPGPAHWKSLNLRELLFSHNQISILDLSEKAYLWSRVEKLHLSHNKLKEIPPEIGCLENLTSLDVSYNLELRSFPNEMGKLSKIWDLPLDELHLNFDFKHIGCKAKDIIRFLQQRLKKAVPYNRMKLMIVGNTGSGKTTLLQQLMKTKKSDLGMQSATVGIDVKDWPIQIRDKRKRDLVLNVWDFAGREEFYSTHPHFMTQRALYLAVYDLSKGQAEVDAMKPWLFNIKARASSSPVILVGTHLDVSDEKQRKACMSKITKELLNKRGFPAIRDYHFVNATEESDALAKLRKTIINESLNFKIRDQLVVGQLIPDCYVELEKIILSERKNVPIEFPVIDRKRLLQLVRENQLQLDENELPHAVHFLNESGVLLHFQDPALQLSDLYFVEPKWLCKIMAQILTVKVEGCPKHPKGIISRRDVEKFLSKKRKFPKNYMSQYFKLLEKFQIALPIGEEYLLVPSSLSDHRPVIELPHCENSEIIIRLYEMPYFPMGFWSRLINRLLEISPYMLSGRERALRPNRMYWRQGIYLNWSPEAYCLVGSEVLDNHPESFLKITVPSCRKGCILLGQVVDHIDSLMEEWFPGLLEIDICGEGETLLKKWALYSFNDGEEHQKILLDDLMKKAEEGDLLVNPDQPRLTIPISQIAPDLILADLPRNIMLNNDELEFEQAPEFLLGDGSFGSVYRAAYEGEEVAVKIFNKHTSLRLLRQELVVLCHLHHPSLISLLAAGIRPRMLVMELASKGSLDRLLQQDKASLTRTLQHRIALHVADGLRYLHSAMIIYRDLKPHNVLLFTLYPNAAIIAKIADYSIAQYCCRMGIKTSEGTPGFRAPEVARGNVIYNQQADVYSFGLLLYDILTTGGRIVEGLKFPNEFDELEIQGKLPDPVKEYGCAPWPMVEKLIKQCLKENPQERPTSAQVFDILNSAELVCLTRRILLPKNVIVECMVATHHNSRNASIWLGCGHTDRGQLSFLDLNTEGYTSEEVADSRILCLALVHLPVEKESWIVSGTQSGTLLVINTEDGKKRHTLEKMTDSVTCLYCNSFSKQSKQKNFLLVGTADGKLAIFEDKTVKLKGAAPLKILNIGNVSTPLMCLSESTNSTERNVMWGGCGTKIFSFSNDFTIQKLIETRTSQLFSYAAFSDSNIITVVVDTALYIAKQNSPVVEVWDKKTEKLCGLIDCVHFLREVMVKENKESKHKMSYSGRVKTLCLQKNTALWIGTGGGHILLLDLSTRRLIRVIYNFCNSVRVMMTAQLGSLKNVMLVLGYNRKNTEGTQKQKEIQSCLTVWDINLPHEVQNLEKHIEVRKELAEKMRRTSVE
The Adapta® universal kinase assay is a homogenous, fluorescent based immunoassay for the detection of ADP. In contrast to ATP depletion assays, the Adapta® assay is extremely sensitive to ADP formation such that a majority of the signal change occurs in the first 10-20% conversion of ATP to ADP. This makes the Adapta® universal kinase assay ideally suited for use with low activity kinases.
Prepare a 1× solution of kinase reaction buffer from the 5× Kinase Buffer S stock (listed above) by adding 2 ml of 5× stock to 8 ml of H2O to make 10 ml of 1× kinase reaction buffer. To this, add 20 μl of 1 M DTT.
Kinase reactions are performed in a 10 μl volume in low-volume 384-well plates. […] Other non—treated assay plates, while not tested, may also be suitable. The concentration of substrate in the assay is 100 μM, and the 1× kinase reaction buffer consists of 50 mM Tris-HCl pH8.5, 10 mM MgCl2, 1 mM EGTA, 0.01% Brij-35, and 2 mM DTT, plus any additional additives that may be required for a specific kinase. […] The plate is allowed to equilibrate at room temperature for at least 30 minutes before being read on a plate reader configured for Adapta™ TR-FRET.
The data presented in this document were generated using a BMG LABTECH PHERAstar plate reader using the appropriate filters and instrument settings for Adapta™. The Test Compounds are screened in 1% DMSO (final) in the well. For 8 point titrations, 5-fold serial dilutions are conducted from the starting concentration.
(§2) IC50 estimates were obtained using the software XLfit (IDBS Inc.).

Assay [5] addresses JAK2 (Homo sapiens (Human), UniProt O60674). The experiment in a line: LANCE Kinase Assay (JAK2_IC50 selectivity assay). It is filed as biochemical.
Text: In LANCE® Kinase Assay (JAK2_IC50 selectivity assay): JAK2 (Invitrogen, Cat. No PV4288), ATP (Sigma, Cat. No. A7699-1G), DMSO (Sigma, Cat. No. D2650), DTT (Sigma, Cat. No. 43815), LANCE Ultra ULight™-JAK-1 peptide (Perkin Elmer, Cat. No. TRF0121), LANCE Eu-W1024 Anti-phosphotyrosine (PT66) (Perkin Elmer, Cat. No. AD0069), LANCE™ Detection Buffer (Perkin Elmer, Cat. No. CR97-100), Tofacitinib (PharmaBlock Sciences(Nanjing), Inc, Cat. No. PBN2011586-01); Equipments: Envision (Perkin Elmer), Bravo (Agilent); Consumables: 384 well Intermediate plate (Greiner, Cat. No. 781280), 384 well assay plate (Perkin Elmer, Cat. No. 6007299),
The assay involves two steps, the enzymatic step and the detection step with HTRF reagents. Step 1: During the enzymatic step the substrate-biotin is incubated with the kinase of interest. ATP is added to start the reaction. Step 2: The detection reagent catches the phosphorylated substrate and the resulting TR-FRET is proportional to the phosphorylation level.
Compound Preparation: Dissolve the test compounds into 30 mM DMSO solution and put them in nitrogen hood at room temperature for long term storage; Dilute the 30 mM compound in DMSO with 3-fold factor, total 11 concentrations; Aspirate 1 μl compound and then dilute them in 25 folds with kinase buffer. Mix well and balance 30 minutes at room temperature.
Kinase Reaction: Transfer 2.5 μl compounds in kinase buffer (4×) into assay plate by Agilent Bravo. Spin the plate; Transfer 5 μl enzyme mixture into the assay plate by using Eppendorf electronic multi-channel pipette. Spin the plate; Incubate the assay plate for 20 minutes at room temperature (23° C.); Add 2.5 μl kinase buffer with ATP into the assay plate by using Multidrop. Spin and seal the plate; Incubate the assay plate for 90 minutes at room temperature (23° C.).
Stop Reaction: Transfer 10 μl detection reagent (2 nM LANCE Eu-W1024 Anti-phosphotyrosine) into the assay plate by using Eppendorf electronic multi-channel pipette. Spin and seal the plate; Incubate the assay plate at room temperature (23° C.) for 60 minutes.
Detection and Read: The excitation wavelength is 340 nm, the primary emission wavelength is 615 nm and the secondary emission wavelength is 665 nm (for Cryptate and Ulight, respectively). Read the plate with EnVision to get the readout of both wavelengths; Calculate the ratio of 665 nm/615 nm.
as §2
(In general: In TR-FRET formats the signal depends on donor and acceptor labels being close together.)

JAK2, sequence (O60674 whole entry): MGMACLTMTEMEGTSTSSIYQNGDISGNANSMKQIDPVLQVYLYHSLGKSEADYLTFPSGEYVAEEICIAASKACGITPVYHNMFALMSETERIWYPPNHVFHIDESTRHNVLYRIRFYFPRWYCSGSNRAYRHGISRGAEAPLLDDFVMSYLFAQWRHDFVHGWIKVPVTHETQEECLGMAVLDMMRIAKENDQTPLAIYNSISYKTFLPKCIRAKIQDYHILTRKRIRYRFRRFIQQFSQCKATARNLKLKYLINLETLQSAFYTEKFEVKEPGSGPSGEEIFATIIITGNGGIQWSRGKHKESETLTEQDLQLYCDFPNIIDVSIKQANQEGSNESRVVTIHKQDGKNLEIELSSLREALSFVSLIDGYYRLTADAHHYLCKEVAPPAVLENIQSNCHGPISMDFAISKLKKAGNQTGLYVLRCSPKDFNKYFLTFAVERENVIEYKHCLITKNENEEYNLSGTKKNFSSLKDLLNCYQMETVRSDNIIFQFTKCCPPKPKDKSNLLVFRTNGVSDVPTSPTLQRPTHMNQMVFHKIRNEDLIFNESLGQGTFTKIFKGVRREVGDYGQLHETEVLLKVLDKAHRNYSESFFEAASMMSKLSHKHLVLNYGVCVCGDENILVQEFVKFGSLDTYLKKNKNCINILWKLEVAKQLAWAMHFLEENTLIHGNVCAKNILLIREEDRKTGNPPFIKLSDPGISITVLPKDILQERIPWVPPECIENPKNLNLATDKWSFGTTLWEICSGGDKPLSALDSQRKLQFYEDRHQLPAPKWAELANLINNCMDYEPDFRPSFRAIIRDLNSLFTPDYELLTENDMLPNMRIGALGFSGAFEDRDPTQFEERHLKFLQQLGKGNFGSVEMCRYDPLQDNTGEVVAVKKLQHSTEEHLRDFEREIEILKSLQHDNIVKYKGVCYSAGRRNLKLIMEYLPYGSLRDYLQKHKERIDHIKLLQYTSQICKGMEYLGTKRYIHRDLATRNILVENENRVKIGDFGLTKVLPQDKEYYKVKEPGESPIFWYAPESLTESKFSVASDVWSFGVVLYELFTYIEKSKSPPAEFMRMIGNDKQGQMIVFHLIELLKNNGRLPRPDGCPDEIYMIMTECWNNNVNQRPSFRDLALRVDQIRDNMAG

As to `c1ccc2c(c1)CN(C1CCOCC1)c1nccc3[nH]nc-2c13` [Example 58], the “Survival Rate” value in assay [1] is “** (P < 0.01, compared to DMSO negative control)”. Besides, the “Climbing Assay 3 weeks” value in assay [2] (3 weeks) is recorded as “* (P < 0.05, compared to DMSO negative control)”. The “Climbing Assay 4 weeks” value in assay [2] (4 weeks) is listed as “* (P < 0.05, compared to DMSO negative control)”. Further, in assay [2] (5 weeks), the “Climbing Assay 5 weeks” value is “** (P < 0.01, compared to DMSO negative control)”. Further, the “Climbing Assay 6 weeks” value in assay [2] (6 weeks) is “** (P < 0.01, compared to DMSO negative control)”. In assay [3], the “Kinase Assays” value was “* (P < 0.05, compared to DMSO negative control)”.
As to `CCn1cc2c(n1)CN(C1CCN(C(C)C)CC1)c1nccc3[nH]nc-2c13` [Example 86, 2-ethyl-9-(1-isopropylpiperidin-4-yl)-2,5,9,10-tetrahydro-1,2,4,5,8,9-hexaazabenzo[cd]cyclopenta[h]azulene], the half-inhibitory concentration (IC50) came to 29 nM in assay [4] and 3000 nM in assay [5].
In the case of `CC(C)N1CCC(N2Cc3nn(C(C)C)cc3-c3n[nH]c4ccnc2c34)CC1` [Example 88, 2-isopropyl-9-(1-isopropylpiperidin-4-yl)-2,5,9,10-tetrahydro-1,2,4,5,8,9-hexaazabenzo[cd]cyclopenta[h]azulene], the IC50 in assay [4] was 31 nM; in assay [5], 5400 nM.
On the same counts, the results for `CN1CCN(C2CCOCC2)c2nccc3[nH]nc1c23` [Example 93, 9-methyl-6-(tetrahydro-2H-pyran-4-yl)-6,7,8,9-tetrahydro-2H-1,2,5,6,9-pentaazabenzo[cd]azulene] are 170 nM and more than 30000 nM.
